Reference: ChEMBL document CHEMBL5050844 (2019)

Experiments:
[1] = Induction of anti-CD3/CD28 antibodies-stimulated human T cell activation at 0.3 uM assessed fold increase in CD25 expression measured by ELISA assay; type: functional, T cell line
[2] = Induction of anti-CD3/CD28 antibodies-stimulated human T cell activation at 0.3 uM assessed fold increase in IL-2 secretion measured by ELISA assay; type: functional, T cell line
[3] = Induction of anti-CD3/CD28 antibodies-stimulated human T cell activation at 1 uM assessed fold increase in CD25 expression measured by ELISA assay; type: functional, T cell line
[4] = target: E3 ubiquitin-protein ligase CBL-B (Homo sapiens, UniProt Q13191); experiment: Inhibition of N-terminal Avi-tagged human CBL-B (36 to 427 residues) incubated with 60 nM Src kinase for 1.5 hrs followed by incubation with fluorescently labeled UbcH5B-Ub for 1 hr and measured by TR-FRET assay; type: single protein
E3 ubiquitin-protein ligase CBL-B, sequence (Q13191 whole entry, the tested form may be a part): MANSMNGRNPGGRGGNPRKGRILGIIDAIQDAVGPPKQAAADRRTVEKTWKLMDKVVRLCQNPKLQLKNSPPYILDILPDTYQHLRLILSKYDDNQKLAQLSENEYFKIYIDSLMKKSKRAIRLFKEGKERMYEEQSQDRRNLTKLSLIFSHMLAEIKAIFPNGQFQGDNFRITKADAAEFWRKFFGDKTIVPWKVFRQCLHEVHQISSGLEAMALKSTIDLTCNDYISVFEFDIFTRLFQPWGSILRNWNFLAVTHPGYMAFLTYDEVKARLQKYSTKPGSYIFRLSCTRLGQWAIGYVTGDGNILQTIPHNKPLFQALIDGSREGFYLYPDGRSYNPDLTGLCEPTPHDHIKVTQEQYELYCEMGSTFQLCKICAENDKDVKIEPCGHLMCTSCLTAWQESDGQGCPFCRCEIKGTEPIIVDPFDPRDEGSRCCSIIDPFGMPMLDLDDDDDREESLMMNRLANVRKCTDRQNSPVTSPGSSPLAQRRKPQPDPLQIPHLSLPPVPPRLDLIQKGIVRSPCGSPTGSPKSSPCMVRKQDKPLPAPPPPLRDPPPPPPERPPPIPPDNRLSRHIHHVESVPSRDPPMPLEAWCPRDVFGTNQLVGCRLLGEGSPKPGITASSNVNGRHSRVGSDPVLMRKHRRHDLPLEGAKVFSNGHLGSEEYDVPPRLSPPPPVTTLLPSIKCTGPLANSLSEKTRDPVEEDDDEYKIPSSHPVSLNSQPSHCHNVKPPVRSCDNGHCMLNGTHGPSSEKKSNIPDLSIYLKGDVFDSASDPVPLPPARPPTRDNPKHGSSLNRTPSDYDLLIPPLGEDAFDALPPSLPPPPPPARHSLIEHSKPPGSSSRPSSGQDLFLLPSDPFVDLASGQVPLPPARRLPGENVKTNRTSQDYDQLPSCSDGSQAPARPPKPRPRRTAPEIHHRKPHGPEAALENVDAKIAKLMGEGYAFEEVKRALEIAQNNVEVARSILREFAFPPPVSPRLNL

[5] = Induction of anti-CD3 antibodies-stimulated human T cell activation at 1 uM assessed fold increase in IL-2 secretion measured by ELISA assay; type: functional, T cell line
[6] = Induction of anti-CD3/CD28 antibodies-stimulated human T cell activation at 1 uM assessed fold increase in IL-2 secretion measured by ELISA assay; type: functional, T cell line
[7] = Induction of anti-CD3 antibodies-stimulated human T cell activation at 1 uM assessed fold increase in CD25 expression measured by ELISA assay; type: functional, T cell line

IC50 [4] | SMILES | fold change (FC) [1] | fold change (FC) [2] | fold change (FC) [3] | fold change (FC) [5] | fold change (FC) [6] | fold change (FC) [7]
< 0.1 µM | Cn1cnnc1CC1(c2cccc(N3Cc4c(cc(C(N5CCCC5)C(F)(F)F)cc4C(F)(F)F)C3=O)c2)COC1 (stereo unspecified) | 1.01 | 1.01 | 1.31 | 0.051 | 2.51 | 0.801
< 0.1 µM | Cn1cnnc1[C@@H](F)C1(c2cccc(N3Cc4c(cc(CN5CCCC5)cc4C(F)(F)F)C3=O)c2)COC1 | >=1.76 | 5 | >=1.76 | >=0.201 | >=7.5 | >=1.001
< 0.1 µM | Cn1cnnc1CC1(c2cccc(N3Cc4c(cc(CN5Cc6ccc(F)cc6C5)cc4C(F)(F)F)C3=O)c2)COC1 | 1.31 | 5 | 1.31 | >=0.201 | >=7.5 | >=1.001
< 0.1 µM | Cn1cnnc1CC1(c2cccc(N3Cc4c(cc(CC5CCCO5)cc4C(F)(F)F)C3=O)c2)COC1 (stereo unspecified) | 1.01 | 2.51 | 1.01 | 0.101 | >=7.5 | 0.801
< 0.1 µM | Cc1cc2c(c(C3CC3)n1)CN(c1cccc(C3(Cc4nncn4C)COC3)c1)C2=O | 1.01 | 1.01 | 1.31 | 0.051 | 2.51 | 0.801
< 0.1 µM | C[C@H]1CN(Cc2cc3c(c(C(F)(F)F)c2)CN(c2cccc(C4(Cc5nncn5C)COC4)c2)C3=O)CCO1 | 1.31 | 5 | 1.31 | >=0.201 | >=7.5 | 0.601
< 0.1 µM | Cn1cnnc1CC1(c2cccc(NC(=O)c3cc(CN4CC[C@H](F)C4)nc(C(F)(F)F)n3)c2)COC1 | 1.01 | 1.01 | 1.01 | 0.051 | 2.51 | 0.801
< 0.1 µM | Cn1cnnc1CC1(c2cccc(N3Cc4c(cc(CN5CCC[C@@H](F)C5)cc4C(F)(F)F)C3=O)c2)COC1 | 1.31 | >=7.5 | 1.31 | >=0.201 | >=7.5 | >=1.001
< 0.1 µM | CCOc1cc(N2Cc3c(cc(CN4CC[C@H](F)C4)cc3C(F)(F)F)C2=O)cc(C2(Cc3nncn3C)COC2)c1 | 1.31 | 5 | 1.31 | >=0.201 | >=7.5 | >=1.001
< 0.1 µM | COc1cccc2c1CN(Cc1cc3c(c(C(F)(F)F)c1)CN(c1cccc(C4(Cc5nncn5C)COC4)c1)C3=O)C2 | 1.51 | 5 | 1.51 | >=0.201 | >=7.5 | >=1.001
< 0.1 µM | COC1CCCN(Cc2cc3c(c(C(F)(F)F)c2)CN(c2cccc(C4(Cc5nncn5C)COC4)c2)C3=O)C1 (stereo unspecified) | 1.31 | >=7.5 | 1.51 | >=0.201 | >=7.5 | >=1.001
< 0.1 µM | Cn1cnnc1CC1(c2cccc(N3Cc4c(cc(N5CCN6CCC[C@H]6C5)cc4C(F)(F)F)C3=O)c2)COC1 | >=1.76 | >=7.5 | >=1.76 | >=0.201 | >=7.5 | >=1.001
< 0.1 µM | CN1CC[C@@H](O)[C@H](Cc2cc3c(c(C(F)(F)F)c2)CN(c2cccc(C4(Cc5nncn5C)COC4)c2)C3=O)C1 (relative stereo) | 1.01 | 1.01 | 1.01 | 0.101 | 2.51 | 0.801
< 0.1 µM | Cc1nc2c(o1)CCN(Cc1cc3c(c(C(F)(F)F)c1)CN(c1cccc(C4(Cc5nncn5C)COC4)c1)C3=O)C2 | 1.01 | 5 | 1.31 | >=0.201 | >=7.5 | >=1.001
< 0.1 µM | C[C@@H](c1cc2c(c(C(F)(F)F)c1)CN(c1cccc(C3(Cc4nncn4C)COC3)c1)C2=O)N1CC(C)(F)C1 | 1.31 | 2.51 | 1.51 | >=0.201 | >=7.5 | >=1.001
< 0.1 µM | Cn1cnnc1CC1(c2cccc(N3Cc4c(cc(C5CCOC5)cc4C(F)(F)F)C3=O)c2)COC1 (stereo unspecified) | 1.01 | 2.51 | 1.01 | 0.101 | 5 | 0.801
< 0.1 µM | Cn1cnnc1CC1(c2cccc(N3Cc4c(cc(CN5Cc6cccnc6C5)cc4C(F)(F)F)C3=O)c2)COC1 | 1.31 | 2.51 | 1.31 | >=0.201 | >=7.5 | >=1.001
< 0.1 µM | CN1CC2CCC1CN2c1cc2c(c(C(F)(F)F)c1)CN(c1cccc([C@@](C)(F)C(F)(F)c3nncn3C)c1)C2=O (stereo partly specified) | 1.31 | 1.01 | 1.31 | 0.101 | 2.51 | >=1.001
< 0.1 µM | Cn1cnnc1CC1(c2cccc(N3Cc4c(cc(N5CC6(CCC6(F)F)C5)cc4C(F)(F)F)C3=O)c2)COC1 | 1.01 | 1.01 | 1.01 | <=0.05 | 2.51 | 0.601
< 0.1 µM | Cn1cnnc1CC1(c2cccc(N3Cc4c(cc(CN5CC6CC5CO6)cc4C(F)(F)F)C3=O)c2)COC1 (stereo unspecified) | 1.01 | 2.51 | 1.01 | 0.051 | 5 | 0.801
< 0.1 µM | Cn1cnnc1CC1(c2cccc(N3Cc4c(cc(CN5CCC6(CC6)C5)cc4C(F)(F)F)C3=O)c2)CCC1 | 1.31 | >=7.5 | 1.31 | >=0.201 | >=7.5 | >=1.001
< 0.1 µM | Cn1cnnc1CC1(c2cccc(N3Cc4c(cc(N5CCOCC5)cc4C(F)(F)F)C3=O)c2)COC1 | 1.31 | 5 | 1.51 | 0.101 | >=7.5 | >=1.001
< 0.1 µM | Cn1cnnc1CC1(c2cccc(N3Cc4c(cc(CN5CCC6CC6C5)cc4C(F)(F)F)C3=O)c2)COC1 (stereo unspecified) | 1.31 | >=7.5 | 1.31 | >=0.201 | >=7.5 | >=1.001
< 0.1 µM | CC(c1cc2c(c(C3CC3)n1)CN(c1cccc(C3(Cc4nncn4C)COC3)c1)C2=O)N1CCCCC1 (stereo unspecified) | >=1.76 | 5 | >=1.76 | >=0.201 | >=7.5 | 0.601
< 0.1 µM | Cn1cnnc1CC1(c2cccc(NC(=O)c3cc(CN4CC[C@H](F)C4)nc(C4CC4)n3)c2)COC1 | 1.51 | >=7.5 | 1.51 | >=0.201 | >=7.5 | >=1.001
< 0.1 µM | Cn1cnnc1CC1(c2cccc(N3Cc4c(cc(N5CC(C(F)F)C5)cc4C(F)(F)F)C3=O)c2)COC1 | 1.01 | 2.51 | 1.01 | 0.051 | 5 | 0.801

SMILES | IC50 [4] | fold change (FC) [1] | fold change (FC) [2] | fold change (FC) [3] | fold change (FC) [5] | fold change (FC) [6] | fold change (FC) [7]
CN1CC2CC(C1)N2c1cc2c(c(C(F)(F)F)c1)CN(c1cccc([C@@](C)(F)C(F)(F)c3nncn3C)c1)C2=O | < 0.1 µM | 1.01 | 1.01 | 1.01 | 0.051 | 2.51 | 0.801
Cn1cnnc1[C@H](F)C1(c2cccc(N3Cc4c(cc(CN5[C@H]6CC[C@H]5CC(F)C6)cc4C(F)(F)F)C3=O)c2)COC1 (stereo partly specified) | < 0.1 µM | >=1.76 | >=7.5 | >=1.76 | >=0.201 | >=7.5 | >=1.001
